# Laboratory results: US9096591B2, “Tetracyclic compounds” (Medivation Technologies, Inc., priority 2007, dated 2015)
# What was measured:
# [1] = test system: synaptosomes of cortex of rat brain; experiment: Glutamate-induced 45Ca2+ uptake into synaptosomes; type: biochemical, Wistar rats
# Outline: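 Cortical synaptosomes (P2 fraction) from 9-10-day-old Wistar rats, ~1.5-2 mg/ml protein in HEPES-buffered saline with glucose, pH 7.4, stimulated 5 min with 200 μM glutamate at 37° C. 45Ca2+ uptake measured by filtration and scintillation counting; specific uptake with compound expressed as percentage of glutamate-induced uptake, each corrected for unstimulated uptake.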
# AMPA receptors = experiment: AMPA-receptor activity: kainic acid-induced currents in Purkinje cells (patch-clamp); type: cell-based, rat; details: mean±SEM, control=100%
# Protocol: The analysis of effects of the testing compounds on AMPA receptors was carried out using an electrophysiological patch-clamp method in whole cell configuration (Hamill et al., 1980) of the Purkinje cell fresh isolated from the cerebellum of juvenile rats (12-15 days). The isolation was carried out using a modified method (Kaneda et al., 1988) in which cerebral 400-600 μm sections were incubated for 60 min in the temperature controlled chamber in 10 mL of buffer solution (150 mM NaCl, 5 mM KCl, 2 mM CaCl2, 2 mM MgSO4.7H2O, 10 mM HEPES, 15 mM glucose, pH 7.42). The incubation solution was exchanged with the incubation buffer with pronase (2 mg/mL) and collagenase (1 mg/mL) for 70 min. After a 20 min wash with the original buffer, all sections were placed into the Petri dish and were separated using a Pasteur pipette. All solutions were constantly aerated with 100% O2 at 34° C. The composition of extracellular saline was: 150 mM NaCl, 5 mM KCl, 2.6 mM CaCl2, 2 mM MgSO4.7H2O, 10 mM HEPES, 15 mM glucose, pH 7.36. The transmembrane current was induced as a result of the activation of AMPA receptors by a superfusion with the agonist solution (kainic acid). The currents were measured using borosilicate microelectrodes (resistance […]) filled with 100 mM KCl, 11 mM EGTA, 1 mM CaCl2, 1 mM MgCl2, 10 mM HEPES, 5 mM ATP, pH 7.2. The currents were registered using EPC-9 (HEKA, Germany) and recorded with Pulse software package which was also purchased from HEKA. The analysis of observations was carried out using Pulsefit (HEKA, Germany) and the statistical significance was analyzed using a Student's T-test criteria. Data are presented as mean±SEM in % of control values.
# Compounds of the invention were tested in 3-5 neurons. Every concentration of compound was repeated three-four times in every neuron. Data are presented as mean±SEM in % of Control values (Table 13+14, FIGS. 8-12). Control value=100%.
# rat brain mitochondria = experiment: Mitochondrial membrane potential (safranine test); type: biochemical, Wistar rats; details: suggested from membrane potential and calcium retention data (Table 15)
# Protocol: The same experimental conditions were used for the assessment of alterations of the mitochondrial membrane potential, except that safranine was included in incubation medium at a final concentration of 10 mkM and succinate was added before the compounds of the invention. This concentration of safranine was determined before hand as the optimal compromise between signal/baseline ratio and interference of safranine itself with swelling induced by Ca/Pi (safranine tended to enhance Ca/Pi-induced swelling at concentrations above 20 mkM). Changes in the status of the mPT pore were assessed spectrophotometrically at 554 and 524 nm in a cuvette in a Beckman DU 640 spectrophotometer. A554-524 represents the characteristics of mitochondrial potential and A554-characteristics of mitochondrial swelling.
structure (smiles),measurement,setting,value
Cc1ccc2c(c1)c1c(n2CCc2noc(-c3ccccc3)n2)CCN(C)C1 [Compound C4-4],concentration at which glutamate-induced 45Ca2+ uptake into synaptosomes was increased,[1],50 to 100 µM
same,concentration at which glutamate-induced 45Ca2+ uptake into synaptosomes was inhibited,[1],0.5 µM
same,inhibition of glutamate-induced 45Ca2+ uptake into synaptosomes,[1]; 1 μM (maximal inhibition),20.5%
same,"glutamate-induced 45Ca2+ uptake into synaptosomes of rat cortex, % Ca of control (control-100%)",[1]; C 0.1 μM,111.2 ± 9.2%
same,"glutamate-induced 45Ca2+ uptake into synaptosomes of rat cortex, % Ca of control (control-100%)",[1]; C 0.5 μM,81.8 ± 14%
same,"glutamate-induced 45Ca2+ uptake into synaptosomes of rat cortex, % Ca of control (control-100%)",[1]; C 1.0 μM,79.5 ± 11.1%
same,"glutamate-induced 45Ca2+ uptake into synaptosomes of rat cortex, % Ca of control (control-100%)",[1]; C 5.0 μM,97.9 ± 4.3%
same,"glutamate-induced 45Ca2+ uptake into synaptosomes of rat cortex, % Ca of control (control-100%)",[1]; C 10 μM,99.9 ± 11.7%
same,"glutamate-induced 45Ca2+ uptake into synaptosomes of rat cortex, % Ca of control (control-100%)",[1]; C 25 μM,93.6 ± 15.7%
same,"glutamate-induced 45Ca2+ uptake into synaptosomes of rat cortex, % Ca of control (control-100%)",[1]; C 50 μM,137.5 ± 5.4%
same,"glutamate-induced 45Ca2+ uptake into synaptosomes of rat cortex, % Ca of control (control-100%)",[1]; C 100 μM,125.3 ± 11.2%
same,"kainic acid-induced currents in Purkinje cells, % of Control values",AMPA receptors; compound 3 × 10^−5 M,150 ± 20%
same,"kainic acid-induced currents in Purkinje cells, % of Control values",AMPA receptors; compound 10^−5 M,150 ± 26%
same,"kainic acid-induced currents in Purkinje cells, % of Control values",AMPA receptors; compound 10^−6 M,142 ± 11%
same,"kainic acid-induced currents in Purkinje cells, % of Control values",AMPA receptors; compound 10^−7 M,147 ± 15%
same,"kainic acid-induced currents in Purkinje cells, % of Control values",AMPA receptors; compound 10^−8 M,129 ± 5%
same,"kainic acid-induced currents in Purkinje cells, % of Control values",AMPA receptors; compound 10^−9 M,100%
same,impairment of mitochondrial respiratory functions accompanying inhibition of MPT,rat brain mitochondria,impairment of mitochondrial respiratory functions
